# Source: paper PMC9862409 (Pharmaceutics, 2023)
# Columns and labels:
# [1] = In vitro drug release, dialysis bag diffusion method; format: physicochemical; conditions: after 6 h; PBS pH 7.4, 37 °C
# Description: The dissolution medium was phosphate buffer saline (PBS) (pH 7.4), which mimics physiological pH. […] Aliquots of 3 mL were taken from the dissolution medium at predefined time points at 0.5, 1, 2, 3, 4, 5, 6, 7, 8, 10, 12, 24, 36, and finally at 48 h. The sink conditions were maintained by immediately replenishing the equivalent volume of fresh PBS (pH 7.4) after each aliquot withdrawal. […] The study was performed in triplicate and was graphically presented as the cumulative percentage of drug release versus time. Data from the in vitro drug release study was further analyzed using different kinetic models to determine the drug release pattern.
# Statistical analysis of in vitro drug release kinetic models was carried out using one-way analysis of variance (ANOVA) followed by Tukey’s Multiple Comparison post hoc test; p ≤ 0.05. […] Analyses were done using GraphPad Prism 6.01 (San Diego, CA, USA).
# [2] = biological target: mushroom tyrosinase; experiment: Anti-tyrosinase assay; format: biochemical
# Description: For the anti-tyrosinase assay, mushroom tyrosinase (5600 units/mL) was incubated at 37 °C for 15 min along with tested samples or standard inhibitor kojic acid (1.4 mg/mL) before the addition of the substrate 1 mM L-DOPA. Afterward, the optical density of the formed dopachrome was analyzed at 475 nm. Various concentrations of the tested samples (75–500 µg/mL) were used. All tests were conducted in triplicate. The enzyme inhibition activity was expressed in percentage using the following equation: (5) Enzyme inhibition activity %=Optical density of control – Optical density of sample/Optical density of control×100
# Statistical analysis of in vitro drug release kinetic models was carried out using one-way analysis of variance (ANOVA) followed by Tukey’s Multiple Comparison post hoc test; p ≤ 0.05. Moreover, in vitro skin-related enzyme inhibitory assays were carried out in triplicates, and results were expressed as mean ± standard deviation. A non-linear regression curve was used to calculate IC50. An unpaired t-test was used for statistical comparison between the two groups. p < 0.05 is considered statistically significant. Analyses were done using GraphPad Prism 6.01 (San Diego, CA, USA).
# [3] = biological target: T1, human leukocyte elastase (Homo sapiens, UniProt P08246); experiment: Anti-elastase assay; format: biochemical
# T1 construct: purchased Nawah Scientific Inc., Cairo, Egypt
# T1 sequence (P08246 30-267): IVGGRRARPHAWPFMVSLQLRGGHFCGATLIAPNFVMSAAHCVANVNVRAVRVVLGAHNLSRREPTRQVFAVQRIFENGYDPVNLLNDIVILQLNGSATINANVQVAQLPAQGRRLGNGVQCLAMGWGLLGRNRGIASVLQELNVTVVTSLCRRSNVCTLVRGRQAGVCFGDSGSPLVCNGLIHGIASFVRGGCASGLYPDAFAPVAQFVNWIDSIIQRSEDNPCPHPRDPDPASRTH
# Description: The anti-elastase, anti-collagenase, and anti-tyrosinase activities were assessed following the method reported by Mostafa et al. [32]. […] For the anti-elastase assay, human leukocyte elastase (1 µg/mL) was incubated with N-2-hydroxyethylpiperazine-N-2-ethane sulfonic acid (HEPES) buffer (pH 7.5). Each of the tested samples or the standard inhibitor N-Methoxysuccinyl-Ala-Ala-Pro-chloromethyl ketone (1.4 mg/mL) was added into the 96-well plate for 20 min at 25 °C before the addition of 100 µL substrate of 1 mM N-Methoxysuccinyl-Ala-Ala-Pro-Val-p-nitroanilide. Afterward, the optical density was measured after 40 min of incubation at 405 nm against a blank well lacking the test sample/inhibitor. Various concentrations of the tested samples (25–300 µg/mL) were used.
# Moreover, in vitro skin-related enzyme inhibitory assays were carried out in triplicates, and results were expressed as mean ± standard deviation. A non-linear regression curve was used to calculate IC50. An unpaired t-test was used for statistical comparison between the two groups. p < 0.05 is considered statistically significant. […]
# [4] = biological target: collagenase type 1 from Clostridium histolyticum; experiment: Anti-collagenase assay; format: biochemical; conditions: +ve control = EDTA
# Description: For the anti-collagenase, collagenase type 1 from Clostridium histolyticum (1 mg/mL) buffer (pH 7.4) along with tested samples or standard inhibitor ethylenediamine tetraacetic acid (EDTA) (1.4 mg/mL) were incubated at 37 °C for 20 min prior to the addition of 100 µL of the substrate 2-furanacryloyl-l-leucylglycyl-l-prolyl-l-alanine (FALGPA). The mixture was then incubated at 37 °C for an additional 1 h before the addition of 200 µL of 2% ninhydrin in 200 mM citrate buffer (pH 5) and placed in a water bath for 5 min. Afterward, the solution was left to cool down completely. Afterwards 200 µL of 50% isopropanol was added, and the optical densities were analyzed at 540 nm. Various concentrations of the tested samples (25–300 µg/mL) were used.
# [5] = test system: RBCs; conditions: cited from earlier work
# [6] = test system: methicillin-resistant Staphylococcus aureus (MRSA); experiment: MIC by broth microdilution method; format: cell-based
# Description: (§1) The MIC was determined by the broth microdilution method. […] Stock solutions were serially diluted (2-fold) in sterile Müeller Hinton broth (MHB) with a dilution range of 0.125 to 150 µg/mL. Overnight culture turbidity was adjusted equivalent to the 0.5 McFarland standard and then diluted to give a final concentration equivalent to 10^6 CFU/mL [30]. One hundred microliters of the adjusted bacterial culture were added to an equal volume of the tested dilutions in a 96-well microtiter plate. The plates were then incubated at 37 °C for 24 h.
# (§2) The MIC was recorded as the lowest concentration of an antimicrobial agent, which gave no visible growth. […] The experiment was conducted in triplicate. The mean as well as standard deviation were recorded.
# [7] = test system: Staphylococcus aureus; experiment: MIC by broth microdilution method; format: cell-based; conditions: Staphylococcus aureus (ATCC® 25922)
# Description: as §1, §2
# [8] = susceptible ≤4 µg/mL, resistant ≥8 µg/mL
compound,measurement,setting,value
"CC(=O)NC[C@H]1CN(c2ccc(N3CCOCC3)c(F)c2)C(=O)O1 [LNZ, Linezolid]",percentage LNZ released,[1],~98 ± 0.5%
same,Anti-Tyrosinase IC50,[2]; +ve control = kojic acid,363.50 ± 2.08 µg/mL
same,Anti-Tyrosinase % Inhibition,"[2]; samples tested 75–500 µg/mL, concentration of this value not stated, +ve control = kojic acid (1.4 mg/mL)",65.00 ± 1.63%
same,IC50,"[3]; +ve control = N-Methoxysuccinyl-Ala-Ala-Pro-chloromethyl ketone, read-out: Anti-Elastase IC50 (µg/mL) (converted)",170 µM
same,Anti-Elastase % Inhibition,"[3]; samples tested 25–300 µg/mL, concentration of this value not stated, +ve control = N-Methoxysuccinyl-Ala-Ala-Pro-chloromethyl ketone (1.4 mg/mL)",88.00 ± 1.35%
same,Anti-Collagenase IC50,[4],335.34 ± 2.09 µg/mL
same,hemolysis percentage,[5],14%
same,Minimum Inhibitory Concentration (MIC),"[6]; 37 °C, 24 h",4 ± 0.00 µg/mL
same,MIC,"[6]; Staphylococcus aureus, 37 °C, 24 h, read-out: Minimum Inhibitory Concentration (MIC)",4 µg/mL
same,susceptibility class (CLSI breakpoints),[6]; [8],S (S: sensitive)
same,MIC,"[7]; ATCC25922, 37 °C, 24 h, read-out: Minimum Inhibitory Concentration (MIC)",4 µg/mL
same,Minimum Inhibitory Concentration (MIC),"[7]; 37 °C, 24 h",4 ± 0.00 µg/mL
same,susceptibility class (CLSI breakpoints),[7]; [8],S (S: sensitive)
